From US20240197681A1, “METHODS AND COMPOSITIONS RELATING TO PS[…] SEROTONIN RECEPTOR MODULATORS” (Terran Biosciences Inc., priority 2021, published 2024)
Entries after “also recorded” stand apart in the source; their conditions may differ. Like-named read-outs stand apart in the source and are kept apart here.

Tests used:
[1] = tested on: hippocampal area CA1 in anesthetized mice; assay: In vivo electrophysiology: local field potentials in hippocampal CA1; settings: for effect of ketanserin pretreatment on psilocybin-induced reduction in low frequency (delta) LFP power: ketanserin 2 mg/kg i.p. 60 minutes before psilocybin 10 mg/kg i.p., 15-25 minutes following psilocybin injection
Healthy Volunteers [2] = assay: Resting-state fMRI: global brain connectivity (GBC) and functional connectivity (FC); format: in vivo, humans; settings: ketanserin 60 minutes before LSD; for LSD induced neural changes at 300 minutes in the presence of ketanserin: absence of psychotomimetic effects
Excerpt: The used dataset was acquired in the course of a registered clinical trial (ClinicalTrials.gov Identifier: NCT02451072) entitled: The Role of 5-HT2A Receptor in the Perception of Self and Personal Meaning in Healthy Volunteers. Participants, study design, neuroimaging data acquisition, preprocessing and global brain connectivity calculation are detailed in Preller et al. (eLife. 2018 Oct. 25; 7:e35082. Changes in global and thalamic brain connectivity in LSD-induced altered states of consciousness are attributable to the 5-HT2A receptor, PMID: 30355445). The relevant methodological sections pertinent to the current analysis are summarized below.
24 subjects were included in the dataset (n=19 males; mean age=25.0 years, standard deviation=3.6 years, range=20-34 years). All included subjects were healthy, as confirmed by medical history, physical examination, blood analysis, electrocardiogra Mini-International Neuropsychiatric Interview (MINI-SCID) [Sheehan et al., 1998], the DSM-IV self-rating questionnaire for Axis-II personality disorders (SCIS-II) [Fydrich et al., 1997], and the Hopkins Symptom Checklist (SCL-90R) [Franke, 1995]. Subjects were required to abstain from prescription or illicit drugs, alcohol, smoking and caffeine.
The study was designed as a fully double-blind, randomized, within-subject cross-over study. During a session, subjects were pretreated with either a placebo or the 5-HT2A receptor antagonist Ketanserin 60 minutes before being treated with either a placebo or LSD. Thus, each subject participated in 3 sessions in which they underwent each of the following pretreatment · treatment conditions in a randomized, balanced order: • a) Placebo+placebo • b) Placebo+LSD • c) Ketanserin+LSD Two resting-state scans were performed, one 75 and the other 300 minutes after treatment. To assess participants' experience, a retrospective self-report questionnaire (5D-ASC, [Dittrich, 1998]) was administered 720 minutes after treatment, and a shorter version of the 5D-ASC 180, 250 and 360 minutes after treatment. […]

Healthy Volunteers [3] = settings: cited from earlier work; for subjective (psychotomimetic) LSD effects versus placebo at 360 minutes: 5D-ASC short version
C57Bl/6J mice [4] = assay: Sucrose preference test (SPT) after chronic multimodal stress (CMMS); format: in vivo; settings: stress-susceptible male mice after 10-14 days CMMS; single drug (psilocybin 1 mg/kg i.p. or ketanserin 2 mg/kg i.p.) plus vehicle injection; 24-48 hours after injection
C57Bl/6J mice [5] = assay: Female urine sniff test (FUST) after chronic multimodal stress (CMMS); format: in vivo; settings: stress-susceptible male mice after 10-14 days CMMS; single drug (psilocybin 1 mg/kg i.p. or ketanserin 2 mg/kg i.p.) plus vehicle injection; 24-48 hours after injection
5-HT2A receptor = target: T1, 5-HT2A receptor (Mus musculus, UniProt P35363); assay: Head twitch response (HTR); format: in vivo, mice; settings: ketanserin 2 mg/kg 60 minutes prior to psilocybin 1 mg/kg, 15 minutes following injection
T1 construct: from tissue; host or cells: live mice (whole animal, brain receptors)
T1 sequence (P35363 whole entry): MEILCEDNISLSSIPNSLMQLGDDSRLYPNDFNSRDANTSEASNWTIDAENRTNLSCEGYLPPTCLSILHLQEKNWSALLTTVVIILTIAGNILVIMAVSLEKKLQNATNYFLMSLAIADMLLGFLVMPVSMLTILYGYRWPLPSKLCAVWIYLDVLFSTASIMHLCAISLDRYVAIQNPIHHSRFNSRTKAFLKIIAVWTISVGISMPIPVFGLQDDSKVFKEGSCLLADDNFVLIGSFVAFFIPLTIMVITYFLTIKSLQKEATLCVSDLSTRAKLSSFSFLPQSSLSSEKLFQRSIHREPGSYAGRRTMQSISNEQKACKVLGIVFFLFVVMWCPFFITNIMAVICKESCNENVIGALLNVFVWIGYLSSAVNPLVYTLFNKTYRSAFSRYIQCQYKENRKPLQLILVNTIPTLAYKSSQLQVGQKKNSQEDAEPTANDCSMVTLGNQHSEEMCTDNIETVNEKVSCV

TA-CA1 synapses = assay: In vitro electrophysiology: AMPA:NMDA ratios of TA-CA1 fEPSPs in hippocampal slices from treated mice; format: in vivo; settings: ketanserin 2 mg/kg 60 minutes prior to psilocybin 1 mg/kg; CMMS mice
Protocol: Standard methods were used to prepare […] hippocampal slices. Briefly, mice were euthanized via exposure to isoflurane followed by decapitation. Brains were excised and the hippocampus was quickly dissected from the brain and sectioned on a Leica VT1200 series vibratome in ice-cold artificial cerebrospinal fluid (ACSF) bubbled with 95% O2/5% CO2. The ACSF contained: 124 mM NaCl, 3 mM KCl, 1.25 mM NaH2PO4, 1.5 mM MgSO4, 2.5 mM CaCl2, 26 mM NaHCO3, and 10 mM glucose. Slices were allowed to recover for a minimum of 60 minutes at room temperature in ACSF in a humidified interface chamber before recording.
Use of extracellular recording, rather than whole-cell recording, was chosen for quantification of AMPA:NMDA ratios because of the complications of stress-induced changes in dendritic structure and their electrotonic influence on recordings of distal TA-CAI synapses. For quantification of AMPA:NMDA ratios, ACSF was prepared as stated, but without MgSO4, to leave NMDA channels unblocked. […] Five fEPSPs were again collected at the same stimulation intensities recorded prior to DNQX. […]
AMPA:NMDA ratios of the TA-CAI fEPSPs were quantified as described previously (A. J. Kallarackal et al., 2013 J. Neuroscience. 33, 15669-15764) in order to provide a measure of synaptic strength across slices from different mice. […]

C57Bl/6J mice [6] = assay: Locomotion in open field arena; settings: ketanserin 2 mg/kg 60 minutes prior to psilocybin 5 mg/kg

| Structure (SMILES) | time of peak effect on low frequency LFP activity following psilocybin injection ([1]; psilocybin 10 mg/kg) [min] | duration of decrease of delta band power ([1]; psilocybin 10 mg/kg, i.p.) [min] | time to decrease of delta band power ([1]; psilocybin 10 mg/kg, i.p.) [min] | LSD induced neural changes at 300 minutes in the presence of ketanserin (Healthy Volunteers [2]) | subjective (psychotomimetic) LSD effects versus placebo at 360 minutes (Healthy Volunteers [3]; FIG. 20 reprinted from Preller 2018) | subjective (psychotomimetic) LSD effects versus placebo at 360 minutes (Healthy Volunteers [3]; FIG. 20 reprinted from Preller 2018, listed as Pla+LSD) | self-reported altered states of consciousness (5D-ASC short version) (Healthy Volunteers [3]; 180, 250 and 360 minutes after second drug administration, FIG. 20 reprinted from Preller 2018) | sucrose preference (SP) compared to values after CMMS (C57Bl/6J mice [4]) | female urine preference compared to values after CMMS (C57Bl/6J mice [5]) | effect of ketanserin pretreatment on psilocybin-induced head-twitching (5-HT2A receptor activation) (5-HT2A receptor) | effect of ketanserin pretreatment on psilocybin-induced head-twitching (5-HT2A receptor activation) (5-HT2A receptor; listed as Ketanserin) | effect of ketanserin pretreatment on the ability of psilocybin to restore AMPA:NMDA ratios (TA-CA1 synapses) | effect of ketanserin pretreatment on LSD-induced neural changes at 75 minutes (Healthy Volunteers [2]) | effect of ketanserin pretreatment on psychotomimetic (behavioral) effects of LSD (Healthy Volunteers [3]; ketanserin 60 minutes before LSD, all timepoints) | effect of ketanserin pretreatment on locomotion (C57Bl/6J mice [6]) | effect of ketanserin pretreatment on psilocybin-induced reduction in low frequency (delta) LFP power [1] | effect of ketanserin pretreatment on psilocybin-induced reduction in low frequency (delta) LFP power ([1]; listed as Ketanserin) |
| --- | --- | --- | --- | --- | --- | --- | --- | --- | --- | --- | --- | --- | --- | --- | --- | --- | --- |
| CN(C)CCc1c[nH]c2cccc(OP(=O)(O)O)c12 [psilocybin] | 15 to 25 | > 60 | ≤ 15 | – | – | – | – | – | – | – | – | – | – | – | – | – | – |
| CCN(CC)C(=O)[C@@H]1C=C2c3cccc4[nH]cc(c34)C[C@H]2N(C)C1 [LSD, lysergic acid diethylamide] | – | – | – | reached near full effect within 300 minutes | still intense and high above placebo | still significantly elevated from placebo | substantial self-reported altered states of consciousness | – | – | – | – | – | – | – | – | – | – |
| O=C(c1ccc(F)cc1)C1CCN(CCn2c(=O)[nH]c3ccccc3c2=O)CC1 [ketanserin] | – | – | – | did not block the neural changes induced by LSD | – | – | – | nor ketanserin alone (p=0.87; n=6) had a significant effect on SP; also recorded: no significant effect | nor ketanserin alone (p=0.072) had a significant effect on female urine preference; also recorded: no significant effect | prevents head-twitching; also recorded: sufficiently blocked 5-HT2A receptors; also recorded: sufficiently attenuated the activation of 5-HT2ARs | block 5-HT2AR-dependent head twitching | did not impair | many of the immediate neural changes induced by LSD at 75 minutes | blocked all of the psychotomimetic effects of LSD; also recorded: fully blocked the behavioral effects of LSD | enhances hypolocomotive effects of psilocybin; also recorded: induced hypo-locomotion | inhibited; also recorded: significantly attenuated | greatly attenuated; also recorded: block |
